Laboratory results taken from patent publication US20200392158A1, “INHIBITORS OF LEUCINE RICH REPEAT KINASE 2” (GLAXOSMITHKLINE INTELLECTUAL PROPERTY DEVELOPMENT LIMITED, priority 2017, published 2020).
pIC50: −log10 of the molar value.

Biological target: T1, LRRK2 kinase in SH-SY5Y cells over-expressing recombinant full length LRRK2 (Homo sapiens, UniProt Q5S007)
T1 construct: A BacMam virus expressing full length recombinant LRRK2 was purchased from Invitrogen; host or cells: SH-SY5Y human neuroblastoma cells transduced with BacMam LRRK2 virus
T1 sequence (Q5S007 whole entry): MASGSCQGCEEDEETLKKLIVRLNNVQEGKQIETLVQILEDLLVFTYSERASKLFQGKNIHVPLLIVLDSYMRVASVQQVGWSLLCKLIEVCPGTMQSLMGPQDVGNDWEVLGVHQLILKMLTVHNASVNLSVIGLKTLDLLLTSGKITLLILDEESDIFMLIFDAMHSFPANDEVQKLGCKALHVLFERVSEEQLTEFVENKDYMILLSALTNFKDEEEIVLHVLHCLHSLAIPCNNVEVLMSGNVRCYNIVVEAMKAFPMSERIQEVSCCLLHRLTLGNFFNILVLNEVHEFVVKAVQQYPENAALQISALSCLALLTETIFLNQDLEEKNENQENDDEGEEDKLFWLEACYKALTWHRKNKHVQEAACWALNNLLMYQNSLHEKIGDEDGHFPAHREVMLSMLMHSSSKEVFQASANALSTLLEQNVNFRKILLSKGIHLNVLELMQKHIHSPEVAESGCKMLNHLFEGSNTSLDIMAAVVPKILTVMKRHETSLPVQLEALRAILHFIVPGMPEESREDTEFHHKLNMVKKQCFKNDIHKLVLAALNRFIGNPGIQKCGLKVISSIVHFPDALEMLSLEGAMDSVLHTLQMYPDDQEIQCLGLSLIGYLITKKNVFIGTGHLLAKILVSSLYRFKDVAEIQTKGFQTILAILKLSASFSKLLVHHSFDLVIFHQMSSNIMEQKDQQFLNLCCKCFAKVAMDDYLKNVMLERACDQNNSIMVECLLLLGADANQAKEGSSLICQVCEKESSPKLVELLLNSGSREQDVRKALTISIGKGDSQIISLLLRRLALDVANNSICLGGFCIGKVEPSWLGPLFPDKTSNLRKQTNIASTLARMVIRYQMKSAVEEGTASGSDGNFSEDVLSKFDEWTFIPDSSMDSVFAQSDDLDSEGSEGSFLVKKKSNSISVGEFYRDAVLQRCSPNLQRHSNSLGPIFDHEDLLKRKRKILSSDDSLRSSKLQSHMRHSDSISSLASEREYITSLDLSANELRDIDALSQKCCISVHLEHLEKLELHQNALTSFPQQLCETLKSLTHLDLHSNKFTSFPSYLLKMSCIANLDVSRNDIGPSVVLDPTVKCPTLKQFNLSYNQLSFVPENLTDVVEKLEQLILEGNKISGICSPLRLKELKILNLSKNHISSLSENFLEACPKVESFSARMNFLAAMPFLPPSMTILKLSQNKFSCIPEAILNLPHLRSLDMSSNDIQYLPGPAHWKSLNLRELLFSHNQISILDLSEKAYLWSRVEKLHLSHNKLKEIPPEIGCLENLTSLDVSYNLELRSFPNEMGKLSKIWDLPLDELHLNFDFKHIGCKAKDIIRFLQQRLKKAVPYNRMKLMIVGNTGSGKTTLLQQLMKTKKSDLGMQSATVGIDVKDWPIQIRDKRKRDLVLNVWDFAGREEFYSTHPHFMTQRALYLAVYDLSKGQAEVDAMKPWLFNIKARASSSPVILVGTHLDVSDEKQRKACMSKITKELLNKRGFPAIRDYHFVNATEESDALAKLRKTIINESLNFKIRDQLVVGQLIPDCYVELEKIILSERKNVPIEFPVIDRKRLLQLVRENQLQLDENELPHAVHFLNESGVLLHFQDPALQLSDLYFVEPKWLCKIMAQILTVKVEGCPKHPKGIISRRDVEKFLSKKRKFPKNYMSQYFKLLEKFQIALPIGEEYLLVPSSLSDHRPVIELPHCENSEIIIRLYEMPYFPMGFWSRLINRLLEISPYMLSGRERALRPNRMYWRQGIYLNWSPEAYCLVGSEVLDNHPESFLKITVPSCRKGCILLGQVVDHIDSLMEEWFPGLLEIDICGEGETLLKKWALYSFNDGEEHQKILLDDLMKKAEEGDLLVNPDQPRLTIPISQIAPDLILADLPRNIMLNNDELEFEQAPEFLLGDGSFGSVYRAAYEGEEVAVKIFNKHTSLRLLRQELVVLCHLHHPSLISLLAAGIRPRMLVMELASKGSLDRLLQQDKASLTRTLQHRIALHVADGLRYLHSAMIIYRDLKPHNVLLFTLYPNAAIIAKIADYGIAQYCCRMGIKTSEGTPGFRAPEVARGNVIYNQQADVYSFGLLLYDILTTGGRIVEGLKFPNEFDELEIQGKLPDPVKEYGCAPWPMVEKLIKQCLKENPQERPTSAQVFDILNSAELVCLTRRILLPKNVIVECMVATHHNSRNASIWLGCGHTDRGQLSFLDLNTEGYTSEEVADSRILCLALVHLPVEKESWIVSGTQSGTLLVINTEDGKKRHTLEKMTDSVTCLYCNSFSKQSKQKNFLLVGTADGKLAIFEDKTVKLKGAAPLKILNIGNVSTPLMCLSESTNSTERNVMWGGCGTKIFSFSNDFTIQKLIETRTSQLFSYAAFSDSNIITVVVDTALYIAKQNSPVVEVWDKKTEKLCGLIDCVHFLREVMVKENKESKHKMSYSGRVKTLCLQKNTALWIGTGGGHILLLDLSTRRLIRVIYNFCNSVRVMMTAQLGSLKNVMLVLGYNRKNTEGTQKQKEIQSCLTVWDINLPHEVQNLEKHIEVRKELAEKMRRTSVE
Assay: Recombinant cellular LRRK2 AlphaScreen assay (LRRK2 Ser935 phosphorylation)
Assay type: cell-based
Details: 60 min
Procedure, shortened: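 Read-out is AlphaScreen of LRRK2 pSer935 over total LRRK2 in lysates of SH-SY5Y cells over-expressing full-length LRRK2 via BacMam (24 h transduction). Cells were exposed 60 min at 37 °C to an 11-point 1-in-4 dilution series starting at 10 uM; sigmoidal fit.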

N#Cc1cnc2nc1NCCCOc1nn(C3CCOCC3)c(Cl)c1N2 [E15, 4-Chloro-5-(oxan-4-yl)-8-oxa-2,5,6,12,16,17-hexaazatricyclo[11.3.1.0^3,7]heptadeca-1(16),3,6,13(17),14-pentaene-14-carbonitrile]
pIC50: ≥ 7.00

Cc1c2c(nn1C1CCOCC1)OCC(F)CNc1nc(ncc1Cl)N2 (centres unmarked) [E16, 14-Chloro-10-fluoro-4-methyl-5-(oxan-4-yl)-8-oxa-2,5,6,12,16,17-hexaazatricyclo [11.3.1.0^3,7]heptadeca-1(16),3,6,13(17),14-pentaene]
pIC50: ≥ 7.00

Cc1c2c(nn1C1CCOCC1)OCCCNc1nc(ncc1C#N)N2 [E69, 4-Methyl-5-(oxan-4-yl)-8-oxa-2,5,6,12,16,17-hexaazatricyclo[11.3.1.0^3,7]heptadeca-1(16),3,6,13(17),14-pentaene-14-carbonitrile]
pIC50: ≥ 7.00

Cc1c2c(nn1C)OCCCNc1nc(ncc1Cl)N2 [E108, 14-Chloro-4,5-dimethyl-8-oxa-2,5,6,12,16,17-hexaazatricyclo [11.3.1.0^3,7]heptadeca-1(16),3,6,13(17),14-pentaene]
pIC50: ≥ 7.00

Cc1c2c(nn1C1CCOCC1)OCCCNc1nc(ncc1C(F)(F)F)N2 [E111, 4-Methyl-5-(oxan-4-yl)-14-(trifluoromethyl)-8-oxa-2,5,6,12,16, 17-hexaazatricyclo[11.3.1.0^3,7]heptadeca-1(16),3,6,13(17),14-pentaene]
pIC50: ≥ 7.00

FC(F)c1c2c(nn1C1CCOCC1)OCCCNc1nc(ncc1C(F)(F)F)N2 [E118, 4-(Difluoromethyl)-5-(oxan-4-yl)-14-(trifluoromethyl)-8-oxa-2,5,6,12,16,17-hexaazatricyclo[11.3.1.0^3,7]heptadeca-1(16),3,6, 13(17),14-pentaene]
pIC50: ≥ 7.00

COC1CNc2nc(ncc2C(F)(F)F)Nc2c(nn(C3CCOCC3)c2C)OC1 (centres unmarked) [E119, 10-Methoxy-4-methyl-5-(oxan-4-yl)-14-(trifluoromethyl)-8-oxa-2,5,6,12,16,17-hexaazatricyclo[11.3.1.0^3,7]heptadeca-1(16),3,6, 13(17),14-pentaene]
pIC50: ≥ 7.00

Cc1c2c(nn1C1CCOC1)OCCCNc1nc(ncc1Cl)N2 (centres unmarked) [E122, 14-Chloro-4-methyl-5-(oxolan-3-yl)-8-oxa-2,5,6,12,16,17-hexa azatricyclo[11.3.1.0^3,7]heptadeca-1(16),3,6,13(17),14-pentaene]
pIC50: ≥ 7.00

Cc1c2c(nn1C1CCOCC1)OCCCNc1cc(ncc1C(F)(F)F)N2 [E125, 4-Methyl-5-(oxan-4-yl)-14-(trifluoromethyl)-8-oxa-2,5,6,12,16-pentaazatricyclo[11.3.1.0^3,7]heptadeca-1(16),3,6,13(17),14-pentaene]
pIC50: ≥ 7.00

Cc1c2c(nn1C1CCOC1)OCCCNc1nc(ncc1C(F)(F)F)N2 (centres unmarked) [E126, 4-Methyl-5-(oxolan-3-yl)-14-(trifluoromethyl)-8-oxa-2,5,6,12,16, 17-hexaazatricyclo[11.3.1.0^3,7]heptadeca-1(16),3,6,13(17),14-pentaene]
pIC50: ≥ 7.00

Cc1c2c(nn1C1CCCOC1)OCCCNc1nc(ncc1C(F)(F)F)N2 (centres unmarked) [E131, 4-Methyl-5-(oxan-3-yl)-14-(trifluoromethyl)-8-oxa-2,5,6,12,16, 17-hexaazatricyclo[11.3.1.0^3,7]heptadeca-1(16),3,6,13(17),14-pentaene]
pIC50: ≥ 7.00

Cc1c2c(nn1C1CCOCC1)OCC(C)CNc1nc(ncc1Cl)N2 (centres unmarked) [E135, 14-Chloro-4,10-dimethyl-5-(oxan-4-yl)-8-oxa-2,5,6,12,16,17-hexaazatricyclo[11.3.1.0^3,7]heptadeca-1(16),3,6,13(17),14-pentaene]
pIC50: ≥ 7.00

Cc1c2c(nn1C1CCOCC1C)OCCCNc1nc(ncc1Cl)N2 (centres unmarked) [E139, 14-Chloro-4-methyl-5-(3-methyloxan-4-yl)-8-oxa-2,5,6,12,16,17-hexaazatricyclo[11.3.1.0^3,7]heptadeca-1(16),3,6,13(17),14-pentaene]
pIC50: ≥ 7.00

Cc1c2c(nn1C1CCC(F)(F)CC1)OCCCNc1nc(ncc1Cl)N2 [E142, 14-Chloro-5-(4,4-difluorocyclohexyl)-4-methyl-8-oxa-2,5,6,12, 16,17-hexaazatricyclo[11.3.1.0^3,7]heptadeca-1(16),3,6,13(17),14-pentaene]
pIC50: ≥ 7.00

Cc1c2c(nn1CC1(C)COC1)OCCCNc1nc(ncc1Cl)N2 [E143, 14-Chloro-4-methyl-5-[(3-methyloxetan-3-yl)methyl]-8-oxa-2,5,6,12,16,17-hexaazatricyclo[11.3.1.0^3,7]heptadeca-1(16),3,6, 13(17), 14-pentaene]
pIC50: ≥ 7.00

Clc1cnc2nc1NCCCOc1nn(C3CCOC3)c(Cl)c1N2 (centres unmarked) [E144, 4,14-Dichloro-5-(oxolan-3-yl)-8-oxa-2,5,6,12,16,17-hexaaza tricyclo[11.3.1.0^3,7]heptadeca-1(16),3,6,13(17),14-pentaene]
pIC50: ≥ 7.00

Cc1c2c(nn1CCN1CCOCC1)OCCCNc1nc(ncc1Cl)N2 [E220, 14-Chloro-4-methyl-5-[2-(morpholin-4-yl)ethyl]-8-oxa-2,5,6,12, 16,17-hexaazatricyclo[11.3.1.0^3,7]heptadeca-1(16),3,6,13(17),14-pentaene]
pIC50: ≥ 7.00

Cc1c2c(nn1C1CC3(COC3)C1)OCCCNc1nc(ncc1Cl)N2 [E300, 14-Chloro-4-methyl-5-{2-oxaspiro[3.3]heptan-6-yl}-8-oxa-2,5,6,12,16,17-hexaazatricyclo[11.3.1.0^3,7]heptadeca-1(16),3,6,13(17),14-pentaene]
pIC50: ≥ 7.00

Cc1c2c(nn1C1CC(N3C[C@H]4C[C@@H]3CO4)C1)OCCCNc1nc(ncc1Cl)N2 (stereo partly drawn) [E310, 14-Chloro-4-methyl-5-{3-[(1R,4R)-2-oxa-5-azabicyclo[2.2.1]heptan-5-yl]-cyclobutyl}-8-oxa-2,5,6,12,16,17-hexaazatricyclo [11.3.1.0^3,7]heptadeca-1(16),3,6,13(17),14-pentaene]
pIC50: ≥ 7.00

Cc1c2c(nn1C1CCOC(CO)C1)OCC[C@@H](C)Nc1nc(ncc1Cl)N2 (stereo partly drawn) [E331, {4-[(11R)-14-Chloro-4,11-dimethyl-8-oxa-2,5,6,12,16,17-hexaazatricyclo[11.3.1.0^3,7]heptadeca-1(16),3,6,13(17),14-pentaen-5-yl]oxan-2-yl}methanol]
pIC50: ≥ 7.00

Cc1c2c(nn1CC1CCOCC1)OCCCNc1nc(ncc1Cl)N2 [E338, 14-Chloro-4-methyl-5-(oxan-4-ylmethyl)-8-oxa-2,5,6,12,16,17-hexaazatricyclo[11.3.1.0^3,7]heptadeca-1(16),3,6,13(17),14-pentaene]
pIC50: ≥ 7.00

COC1CNc2nc(ncc2Cl)Nc2c(nn(C3CCOCC3)c2Cl)OC1 (centres unmarked) [E339, 4,14-Dichloro-10-methoxy-5-(oxan-4-yl)-8-oxa-2,5,6,12,16,17-hexaazatricyclo[11.3.1.0^3,7]heptadeca-1(16),3,6,13(17),14-pentaene]
pIC50: ≥ 7.00

COC1CNc2cc(ncc2Cl)Nc2c(nn(C3CCOCC3)c2C)OC1 (centres unmarked) [E342, 14-Chloro-10-methoxy-4-methyl-5-(oxan-4-yl)-8-oxa-2,5,6, 12,16-pentaazatricyclo[11.3.1.0^3,7]heptadeca-1(16),3,6,13(17), 14-pentaene]
pIC50: ≥ 7.00

CC1CCOc2nn(C3CCOCC3)c(Cl)c2Nc2ncc(Cl)c(n2)N1 (centres unmarked) [E343, 4,14-Dichloro-11-methyl-5-(oxan-4-yl)-8-oxa-2,5,6,12,16,17-hexaazatricyclo[11.3.1.0^3,7]heptadeca-1(16),3,6,13(17),14-pentaene]
pIC50: ≥ 7.00

Cc1c2c(nn1C1CCOCC1)OCC[C@@H](C)N(C)c1nc(ncc1Cl)N2 [E359, (11R)-14-Chloro-4,11,12-trimethyl-5-(oxan-4-yl)-8-oxa-2,5,6,12,16,17-hexaazatricyclo[11.3.1.0^3,7]heptadeca-1(16),3,6,13(17),14-pentaene]
pIC50: ≥ 7.00

Cc1c2c(nn1C1CCC(F)(F)CC1)OCC[C@@H](C)Nc1nc(ncc1Cl)N2 [E373, (11R)-14-Chloro-5-(4,4-difluorocyclohexyl)-4,11-dimethyl-8-oxa-2,5,6,12,16,17-hexaazatricyclo[11.3.1.0^3,7]heptadeca-1(16),3,6,13 (17),14-pentaene]
pIC50: ≥ 7.00

Cc1c2c(nn1C1CCC(OC(F)F)CC1)OCC[C@@H](C)Nc1nc(ncc1Cl)N2 (stereo partly drawn) [E374, (11R)-14-Chloro-5-[4-(difluoromethoxy)cyclohexyl]-4,11-di methyl-8-oxa-2,5,6,12,16,17-hexaazatricyclo[11.3.1.0^3,7]hepta deca-1(16),3,6,13(17),14-pentaene]
pIC50: ≥ 7.00

COCCN1c2nc(ncc2Cl)Nc2c(nn(C3CCOCC3)c2C)OCC[C@H]1C [E400, (11R)-14-Chloro-12-(2-methoxyethyl)-4,11-dimethyl-5-(oxan-4-yl)-8-oxa-2,5,6,12,16,17-hexaazatricyclo[11.3.1.0^3,7]heptadeca-1(16),3,6,13(17),14-pentaene]
pIC50: ≥ 7.00

Cc1c2c(nn1C1CN(C3COC3)CCO1)OCC[C@@H](C)Nc1nc(ncc1Cl)N2 (stereo partly drawn) [E402, (11R)-14-Chloro-4,11-dimethyl-5-[4-(oxetan-3-yl)morpholin-2-yl]-8-oxa-2,5,6,12,16,17-hexaazatricyclo[11.3.1.0^3,7]heptadeca-1(16),3,6,13(17),14-pentaene]
pIC50: ≥ 7.00

Cc1[nH]nc2c1Nc1ncc(Cl)c(n1)NCC(C)CO2 (centres unmarked) [E431, 14-Chloro-4,10-dimethyl-8-oxa-2,5,6,12,16,17-hexaazatricyclo[11.3.1.0^3,7]heptadeca-1(16),3,6,13(17),14-pentaene]
pIC50: ≥ 7.00

Cc1c2c(nn1C1(C)CCOCC1)OCCCNc1nc(ncc1Cl)N2 [E436, 14-Chloro-4-methyl-5-(4-methyloxan-4-yl)-8-oxa-2,5,6,12,16,17-hexaazatricyclo[11.3.1.0^3,7]heptadeca-1(16),3,6,13(17),14-pentaene]
pIC50: ≥ 7.00

Cc1c2c(nn1C1(C)CCOCC1)OCC[C@@H](C)Nc1nc(ncc1Cl)N2 [E437, (11R)-14-Chloro-4,11-dimethyl-5-(4-methyloxan-4-yl)-8-oxa-2,5,6,12,16,17-hexaazatricyclo[11.3.1.0^3,7]heptadeca-1(16),3,6,13(17),14-pentaene]
pIC50: ≥ 7.00
